Drawing on patent publication US7276603B2, “Benzofuranyl-and benzothienyl-piperazinyl quinolines and methods of their use” (Wyeth, priority 2003, dated 2007), this text covers Ki for 26 compounds.

One assay has as its target T1, human 5-HT1A receptors (Homo sapiens, UniProt P08908).
T1 construct: expressed in transfected cells; host or cells: CHO cells
T1 sequence (P08908 1-422): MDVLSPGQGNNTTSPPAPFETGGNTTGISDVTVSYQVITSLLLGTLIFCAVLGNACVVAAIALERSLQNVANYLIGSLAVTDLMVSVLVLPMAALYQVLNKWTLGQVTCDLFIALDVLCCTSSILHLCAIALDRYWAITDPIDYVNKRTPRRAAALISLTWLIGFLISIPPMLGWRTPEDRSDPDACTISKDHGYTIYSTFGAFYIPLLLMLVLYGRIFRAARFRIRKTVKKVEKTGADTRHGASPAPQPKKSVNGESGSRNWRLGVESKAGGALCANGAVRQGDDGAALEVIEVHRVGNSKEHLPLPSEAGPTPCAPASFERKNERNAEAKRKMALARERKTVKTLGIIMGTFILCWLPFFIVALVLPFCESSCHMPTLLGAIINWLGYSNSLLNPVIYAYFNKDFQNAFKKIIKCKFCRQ
Put plainly: displacement of [3H] 8-OH-DPAT from the 5-HT1A serotonin receptor. It counts as binding. The note with it: CHO cells stably transfected with human 5-HT1A receptors. On the technique in general: Displacement assays read how much labelled ligand stays bound in the presence of the test substance.

The target in a further assay is 5-HT transporter (Rattus norvegicus, UniProt P31652). The experiment in a line: Rat Brain 3H-Paroxetine Binding Assay (RB 5HT Transporter). Conditions: rat frontal cortical membranes; 3H-paroxetine 0.1 nM, 60 min, 25° C. The text has this: Rat Brain ^3H-Paroxetine Binding Assay (RB 5HT Transporter):
This assay was used to determine a compound's affinity of the 5-HT transporter.
All reactions were terminated by the addition of ice cold Tris buffer followed by rapid filtration using a Tom Tech filtration device to separate bound from free ^3H-paroxetine.

Chain of 5-HT transporter (P31652 whole entry): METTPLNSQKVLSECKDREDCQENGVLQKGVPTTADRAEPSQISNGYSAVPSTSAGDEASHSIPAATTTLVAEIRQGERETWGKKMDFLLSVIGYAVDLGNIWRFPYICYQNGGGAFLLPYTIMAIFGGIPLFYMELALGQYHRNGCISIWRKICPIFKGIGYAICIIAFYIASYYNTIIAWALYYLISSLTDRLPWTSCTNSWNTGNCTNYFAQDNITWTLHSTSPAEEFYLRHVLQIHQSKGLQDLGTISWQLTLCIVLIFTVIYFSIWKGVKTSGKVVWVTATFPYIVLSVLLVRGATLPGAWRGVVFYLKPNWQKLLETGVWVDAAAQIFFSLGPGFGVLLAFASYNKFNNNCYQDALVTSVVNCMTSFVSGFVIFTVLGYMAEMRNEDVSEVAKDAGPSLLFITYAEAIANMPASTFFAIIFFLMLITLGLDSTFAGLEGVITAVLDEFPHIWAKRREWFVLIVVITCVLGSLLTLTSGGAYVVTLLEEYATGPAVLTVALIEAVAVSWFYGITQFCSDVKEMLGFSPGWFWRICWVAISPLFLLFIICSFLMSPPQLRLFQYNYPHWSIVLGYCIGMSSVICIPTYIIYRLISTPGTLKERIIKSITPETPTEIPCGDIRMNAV

Consider `Clc1ccc2occ(CCN3CCN(c4cccc5cccnc45)CC3)c2c1` [Compound 12, 8-{4-[2-(5-chloro-1-benzofuran-3-yl)ethyl]-1-piperazinyl}-quinoline], for which the inhibition constant Ki on human 5-HT1A receptors turned out to be 2.92 nM; on 5-HT transporter it was 11 nM.

On to `Clc1cc(N2CCN(CCc3coc4ccc(Cl)cc34)CC2)c2ncccc2c1` [Compound 13, 8-{4-[2-(5-chloro-1-benzofuran-3-yl)ethyl]-1-piperazinyl}-6-chloro-quinoline], for which the figures for the Ki on human 5-HT1A receptors and on 5-HT transporter were 41.3 nM and 64 nM, respectively.

In the case of `Cc1cc(N2CCN(CCc3coc4ccc(Cl)cc34)CC2)c2ncccc2c1` [Compound 14, 8-{4-[2-(5-chloro-1-benzofuran-3-yl)ethyl]-1-piperazinyl}-6-methyl-quinoline], the values for the Ki on human 5-HT1A receptors and on 5-HT transporter were 13.5 nM and 45 nM, respectively.

With `Fc1ccc2occ(CCN3CCN(c4cccc5cccnc45)CC3)c2c1` [Compound 15, 8-{4-[2-(5-fluoro-1-benzofuran-3-yl)ethyl]-1-piperazinyl}-quinoline], the inhibition constant Ki at human 5-HT1A receptors was 0.37 nM; on 5-HT transporter, 17 nM.

In the case of `COc1cc(N2CCN(CCc3coc4ccc(F)cc34)CC2)c2ncccc2c1` [Compound 16, 8-{4-[2-(5-fluoro-1-benzofuran-3-yl)ethyl]-1-piperazinyl}-6-methoxy-quinoline], the figures for the Ki on human 5-HT1A receptors and on 5-HT transporter were 8.05 nM and 62 nM, respectively.

Take `Fc1cc(N2CCN(CCc3coc4ccc(F)cc34)CC2)c2ncccc2c1` [Compound 17, 8-{4-[2-(5-fluoro-1-benzofuran-3-yl)ethyl]-1-piperazinyl}-6-fluoro-quinoline]: the values for the Ki on human 5-HT1A receptors and at 5-HT transporter were 1.59 nM and 16.5 nM, respectively.

On to `COc1cccc2c(CCN3CCN(c4cccc5cccnc45)CC3)coc12` [Compound 18, 8-{4-[2-(7-methoxy-1-benzofuran-3-yl)ethyl]-1-piperazinyl}-quinoline], for which the Ki at human 5-HT1A receptors was 0.11 nM; on 5-HT transporter it was 0.65 nM.

With `COc1cccc2c(CCN3CCN(c4cc(Cl)cc5cccnc45)CC3)coc12` [Compound 20, 8-{4-[2-(7-methoxy-1-benzofuran-3-yl)ethyl]-1-piperazinyl}-6-chloro-quinoline], the Ki on human 5-HT1A receptors came out at 0.14 nM; on 5-HT transporter, 3.79 nM.

Turning to `COc1ccc2occ(CCN3CCN(c4cc(C)cc5cccnc45)CC3)c2c1` [Compound 23, 8-{4-[2-(5-methoxy-1-benzofuran-3-yl)ethyl]-1-piperazinyl}-6-methyl-quinoline], the figures for the inhibitory constant (Ki) on human 5-HT1A receptors and on 5-HT transporter were 20 nM and 28.5 nM, respectively.

For the compound `COc1cc(N2CCN(CCc3coc4ccc(OC)cc34)CC2)c2ncccc2c1` [Compound 25, 8-{4-[2-(5-methoxy-1-benzofuran-3-yl)ethyl]-1-piperazinyl}-6-methoxy-quinoline], the results for the Ki at human 5-HT1A receptors and on 5-HT transporter were 8.71 nM and 47 nM, respectively.

Consider `COc1ccc2occ(CCN3CCN(c4cc(F)cc5cccnc45)CC3)c2c1` [Compound 26, 8-{4-[2-(5-methoxy-1-benzofuran-3-yl)ethyl]-1-piperazinyl}-6-fluoro-quinoline], for which the values for the inhibition constant Ki at human 5-HT1A receptors and on 5-HT transporter were 14.4 nM and 16.5 nM, respectively.

In the case of `CC(CN1CCN(c2cccc3cccnc23)CC1)c1coc2ccccc12` (stereo not shown) [Compound 27, 8-{4-[2-(1-benzofuran-3-yl)propyl]-1-piperazinyl}quinoline], the results for the inhibition constant (Ki) on human 5-HT1A receptors and on 5-HT transporter were 19.3 nM and 32 nM, respectively.

For the compound `CC(CN1CCN(c2cc(Cl)cc3cccnc23)CC1)c1coc2ccccc12` (stereo not shown) [Compound 28, 8-{4-[2-(1-benzofuran-3-yl)propyl]-1-piperazinyl}-6-chloro-quinoline], the inhibition constant (Ki) on human 5-HT1A receptors was 110 nM; at 5-HT transporter it was 73 nM.

`CC(CN1CCN(c2cc(F)cc3cccnc23)CC1)c1coc2ccccc12` (stereo not shown) [Compound 29, 8-{4-[2-(1-benzofuran-3-yl)propyl]-1-piperazinyl}-6-fluoro-quinoline]: the inhibitory constant (Ki) at human 5-HT1A receptors stood at 112 nM; at 5-HT transporter, 68 nM.

Take `Cc1cc(N2CCN(CC(C)c3coc4ccccc34)CC2)c2ncccc2c1` (stereo not shown) [Compound 30, 8-{4-[2-(1-benzofuran-3-yl)propyl]-1-piperazinyl}-6-methyl-quinoline]: the Ki at human 5-HT1A receptors came to 79.1 nM; at 5-HT transporter it was 93 nM.

Take `COc1cccc2c(C(C)CN3CCN(c4cccc5cccnc45)CC3)coc12` (stereo not shown) [Compound 31, 8-{4-[2-(7-methoxy-1-benzofuran-3-yl)propyl]-1-piperazinyl}quinoline]: the Ki amounted to 0.91 nM at human 5-HT1A receptors and 4.17 nM on 5-HT transporter.

Take `COc1cccc2c(C(C)CN3CCN(c4cc(C)cc5cccnc45)CC3)coc12` (stereo not shown) [Compound 32, 8-{4-[2-(7-methoxy-1-benzofuran-3-yl)propyl]-1-piperazinyl}-6-methyl-quinoline]: the Ki amounted to 2.16 nM at human 5-HT1A receptors and 35 nM on 5-HT transporter.

For the compound `COc1cccc2c(C(C)CN3CCN(c4cc(Cl)cc5cccnc45)CC3)coc12` (stereo not shown) [Compound 33, 8-{4-[2-(7-methoxy-1-benzofuran-3-yl)propyl]-1-piperazinyl}-6-chloro-quinoline], the results for the inhibitory constant (Ki) at human 5-HT1A receptors and at 5-HT transporter were 8.19 nM and 58 nM, respectively.

With `COc1cccc2c(C(C)CN3CCN(c4cc(C)cc5cccnc45)CC3)coc12` (stereo not shown) [Compound 34, 8-{4-[2-(7-methoxy-1-benzofuran-3-yl)propyl]-1-piperazinyl}-6-methyl-quinoline], the Ki on human 5-HT1A receptors is 9.13 nM; on 5-HT transporter it was 35 nM.

On to `COc1cc(N2CCN(C(C)Cc3coc4c(OC)cccc34)CC2)c2ncccc2c1` (stereo not shown) [Compound 36, 6-methoxy-8-{4-[2-(7-methoxy-1-benzofuran-3-yl)-1-methylethyl)piperazin-1-yl]quinoline], for which the values for the inhibitory constant (Ki) at human 5-HT1A receptors and on 5-HT transporter were 0.23 nM and 4.16 nM, respectively.

For `COc1ccc2occ(CC(C)N3CCN(c4cc(Cl)cc5cccnc45)CC3)c2c1` (stereo not shown) [Compound 39, 6-chloro-8-{4-[2-(5-methoxy-1-benzofuran-3-yl)-1-methylethyl)piperazin-1-yl]quinoline], the values for the inhibition constant Ki on human 5-HT1A receptors and at 5-HT transporter were 0.34 nM and 5.5 nM, respectively.

Regarding `COc1ccc2occ(CC(C)N3CCN(c4cc(C)cc5cccnc45)CC3)c2c1` (stereo not shown) [Compound 40, 6-methyl-8-{4-[2-(5-methoxy-1-benzofuran-3-yl)-1-methylethyl)piperazin-1-yl]quinoline], the figures for the Ki on human 5-HT1A receptors and at 5-HT transporter were 1.77 nM and 130 nM, respectively.

For the compound `COc1cc(N2CCN([C@H]3CC[C@@H](c4csc5ccc(F)cc54)CC3)CC2)c2ncccc2c1` [Compound 49, 6-methoxy-8-{4-[4-cis(5-fluoro-1-benzothien-3-yl)cyclohexyl]piperazin-1-yl}quinoline], the inhibition constant Ki was found to be 1.37 nM at human 5-HT1A receptors and 92 nM at 5-HT transporter.

Consider `COc1cc(N2CCN([C@H]3CC[C@H](c4csc5ccc(F)cc54)CC3)CC2)c2ncccc2c1` [Compound 50, 6-methoxy-8-{4-[4-trans(5-fluoro-1-benzothien-3-yl)cyclohexyl]piperazin-1-yl}quinoline], for which the Ki at human 5-HT1A receptors was 25.9 nM; at 5-HT transporter, 10 nM.

For the compound `Fc1cc(N2CCN([C@H]3CC[C@@H](c4coc5ccccc54)CC3)CC2)c2ncccc2c1` [Compound 55, 8-{4-[4-cis(1-benzofuran-3-yl)cyclohexyl]-1-piperazinyl}-6-fluoroquinoline], the Ki was 0.11 nM on human 5-HT1A receptors and 116 nM on 5-HT transporter.

On to `COc1cccc2c1occ2[C@H]1CC[C@H](N2CCN(c3ccc(F)c4cccnc34)CC2)CC1` [Compound 58, 5-fluoro-8-{4-[4-trans(7-methoxy-1-benzofuran-3-yl)cyclohexyl]-1-piperazinyl}quinoline], for which the inhibitory constant (Ki) at human 5-HT1A receptors is 21.1 nM; at 5-HT transporter it was 34 nM.

Broadly, the Ki is the dissociation constant of the complex between target and ligand, obtained from inhibition or displacement. Read a high Ki as weaker binding.
